In PubChem BioAssay (NCI):
Values joined by “and” are separate entries in the source; they are usually repeats but may differ in a detail not shown here. Equal values may be shown once.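 48-hour exposure; five concentrations; linearly interpolated endpoints. Abbreviation: GI50, concentration required for 50% inhibition of growth. TGI: concentration producing complete growth inhibition.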 Where a SMILES comes first, the peptide text is derived from it. The star is where a group is joined. Boc = CC(C)(C)OC(=O)*; nBu = CCCC*

Tests used:
Test in all cases: DTP human tumour cell line panel, 48 h
786-0 renal = tested on: 786-0 renal
SNB-75 CNS = tested on: SNB-75 CNS
OVCAR-4 ovarian = tested on: OVCAR-4 ovarian
SNB-78 CNS = tested on: SNB-78 CNS
XF 498 CNS = tested on: XF 498 CNS
M19-MEL melanoma = tested on: M19-MEL melanoma
SN12C renal = tested on: SN12C renal
KM20L2 colon = tested on: KM20L2 colon
DMS 114 small cell lung = tested on: DMS 114 small cell lung
LXFL 529 NSCLC = tested on: LXFL 529 NSCLC
DLD-1 colon = tested on: DLD-1 colon
T-47D breast = tested on: T-47D breast
DMS 273 small cell lung = tested on: DMS 273 small cell lung

`O=C(O)c1cc2ccccc2c(N=Nc2ccc(S(=O)(=O)Nc3ncccn3)cc2)c1O` was tested, and the TGI (786-0 renal) was > 100 µM, the TGI (SNB-75 CNS) was > 100 µM and the TGI (OVCAR-4 ovarian) was > 100 µM.
For `C#C[C@]1(O)CC[C@H]2[C@@H]3CCc4cc(O)ccc4[C@H]3CC[C@@]21C`, the TGI (SNB-78 CNS) was > 100 µM, the TGI (XF 498 CNS) was 98 µM and the TGI (M19-MEL melanoma) was 57.2 µM. For the same molecule, the TGI (786-0 renal) was > 100 µM, the TGI (SN12C renal) was > 100 µM and the TGI (KM20L2 colon) was 38.9 µM. For the same molecule, the TGI (DMS 114 small cell lung) was > 100 µM, the TGI (LXFL 529 NSCLC) was > 100 µM and the TGI (SNB-75 CNS) was 42.8 µM. The TGI (DLD-1 colon) was 60.7 µM.
With `CCOc1nc2c(N3CCCC3)nc(N3CCNCC3)nc2nc1NCc1ccccc1` the TGI (786-0 renal) was 2.68 µM, the TGI (SN12C renal) was 2.96 µM and the TGI (T-47D breast) was 3.13 µM. The TGI (SNB-75 CNS) was 2.46 µM and the TGI (OVCAR-4 ovarian) was 6.05 µM.
For `C/C(C=O)=C/[C@@]1(C)O[C@@H](C)[C@@](C)(O)[C@@H]1O`, the TGI (786-0 renal) was 34.6 µM, the TGI (SN12C renal) was > 100 µM and the TGI (T-47D breast) was > 100 µM. For the same molecule, the TGI (OVCAR-4 ovarian) was > 100 µM.
In the case of `CN1CCC(C(O)(c2ccccc2)c2ccc(Br)cc2)CC1` (stereo not drawn), the TGI (786-0 renal) is reported as 27.5 µM, the TGI (SN12C renal) is reported as 44.3 µM and the TGI (T-47D breast) is reported as 78.3 µM. The TGI (SNB-75 CNS) was 91.5 µM and the TGI (OVCAR-4 ovarian) was > 100 µM.
Molecule `N#C/C(=C(/O)CCl)c1nc2ccccc2o1` has a TGI (786-0 renal) of 41.3 µM, a TGI (SN12C renal) of 9.33 µM and a TGI (T-47D breast) of 44.6 µM. It also gave a TGI (SNB-75 CNS) of 23.4 µM and a TGI (OVCAR-4 ovarian) of 3.97 µM.
`COc1ccc2nc3cc(Cl)ccc3c(NCCCN3CCN(CCCNc4ccc5nnn6c7ccccc7c(=O)c4c56)CC3)c2c1` was tested, and the TGI (786-0 renal) was > 25 µM, the TGI (SN12C renal) was > 25 µM and the TGI (T-47D breast) was > 25 µM. For the same molecule, the TGI (SNB-75 CNS) was > 25 µM and the TGI (OVCAR-4 ovarian) was > 25 µM.
For `Nc1nc(SCC(=O)c2ccc(Br)cc2)c2[nH]cnc2n1`, the TGI (786-0 renal) was > 100 µM, the TGI (SN12C renal) was > 100 µM and the TGI (T-47D breast) was 98.7 µM. For the same molecule, the TGI (SNB-75 CNS) was 73 µM and the TGI (OVCAR-4 ovarian) was > 100 µM.
With `COc1ccc(CCn2cncn2)cc1` the TGI (SNB-78 CNS) was > 100 µM, the TGI (M19-MEL melanoma) was > 100 µM and the TGI (SN12C renal) was > 100 µM. The TGI (KM20L2 colon) was > 100 µM, the TGI (DMS 273 small cell lung) was > 100 µM and the TGI (DMS 114 small cell lung) was > 100 µM. The TGI (LXFL 529 NSCLC) was > 100 µM, the TGI (SNB-75 CNS) was > 100 µM and the TGI (OVCAR-4 ovarian) was > 100 µM. For the same molecule, the TGI (DLD-1 colon) was > 100 µM.
With `CCCCCCCCCCCCCCCc1nc(=S)[nH][nH]1` the TGI (SNB-78 CNS) was > 100 µM, the TGI (XF 498 CNS) was > 100 µM and the TGI (M19-MEL melanoma) was > 100 µM. For the same molecule, the TGI (SN12C renal) was > 100 µM, the TGI (DMS 114 small cell lung) was > 100 µM and the TGI (LXFL 529 NSCLC) was > 100 µM. For the same molecule, the TGI (SNB-75 CNS) was > 100 µM and the TGI (OVCAR-4 ovarian) was > 100 µM.
`CCCCOc1ccc(CC(NC(=O)OC(C)(C)C)C(=O)NC(C)C(=O)NC(Cc2ccccc2)C(=O)NCC(N)=O)cc1` (stereo not drawn) (Boc-Y(nBu)AFG-NH2; configuration not given here) was tested, and the TGI (786-0 renal) was > 100 µM, the TGI (SN12C renal) was > 100 µM and the TGI (T-47D breast) was > 100 µM. The TGI (SNB-75 CNS) was > 100 µM and the TGI (OVCAR-4 ovarian) was > 100 µM.
In the case of `CC1(C)OC[C@@H]([C@@]2(COC(c3ccccc3)(c3ccccc3)c3ccccc3)CC=CC(=O)O2)O1`, the TGI (786-0 renal) is reported as > 100 µM, the TGI (SN12C renal) is reported as 97.1 µM and the TGI (T-47D breast) is reported as > 100 µM. The TGI (SNB-75 CNS) was 59.3 µM and the TGI (OVCAR-4 ovarian) was > 100 µM.
In the case of `COc1cc(C2S/C(=C/c3ccccc3)C(=O)N2c2cccc(NC(C)=O)c2)cc(OC)c1OC` (stereo not drawn), the TGI (SN12C renal) is reported as > 100 µM, the TGI (T-47D breast) is reported as 68.6 µM and the TGI (SNB-75 CNS) is reported as 28 µM. For the same molecule, the TGI (OVCAR-4 ovarian) was > 100 µM.
`O=[N+]([O-])c1ccc(N=Nc2c(O)[nH]c3ccccc23)c([N+](=O)[O-])c1` showed a TGI (786-0 renal) of 28.8 µM, a TGI (SN12C renal) of 38.8 µM and a TGI (T-47D breast) of 52.8 µM. The TGI (SNB-75 CNS) was 72.3 µM and the TGI (OVCAR-4 ovarian) was 30.7 µM.
Molecule `COC(=O)c1c(O)ccc2c1c1c(n2Cc2cc(OC)cc(OC)c2)C(=O)c2ccccc2C1=O` has a TGI (786-0 renal) of 21.4 µM, a TGI (SN12C renal) of 24.2 µM and a TGI (T-47D breast) of 50.5 µM. For the same molecule, the TGI (SNB-75 CNS) was 58.7 µM and the TGI (OVCAR-4 ovarian) was 50.7 µM.
Molecule `CC(=O)c1ccc(Nc2c3ccccc3nc3occc23)cc1` has a TGI (786-0 renal) of 3.19 µM, a TGI (SN12C renal) of 56.4 µM and a TGI (T-47D breast) of 32.8 µM.
With `O=c1c2cc(O)ccc2n2nnc3ccc(NCCNCCO)c1c32` the GI50 (SNB-78 CNS) was 4.78 µM and 2.11 µM, the TGI (SNB-78 CNS) was > 55.9 µM and 14.4 µM and the TGI (XF 498 CNS) was 12.4 µM. For the same molecule, the GI50 (M19-MEL melanoma) was 6.8 µM and 2.68 µM, the TGI (M19-MEL melanoma) was 20.7 µM and 12.1 µM and the TGI (786-0 renal) was > 100 µM and 24 µM. For the same molecule, the GI50 (SN12C renal) was 5.78 µM and 2.85 µM, the TGI (SN12C renal) was 51.9 µM and 18.4 µM and the GI50 (KM20L2 colon) was 27.1 µM and 13.4 µM. The TGI (KM20L2 colon) was > 100 µM and 44.9 µM, the TGI (DMS 273 small cell lung) was > 59.3 µM and the TGI (DMS 114 small cell lung) was 14.8 µM and 9.51 µM. The TGI (LXFL 529 NSCLC) was 18.1 µM and 13 µM, the GI50 (SNB-75 CNS) was 2.68 µM and 5.5 µM and the TGI (SNB-75 CNS) was 17 µM and 18.3 µM. For the same molecule, the TGI (OVCAR-4 ovarian) was 33.2 µM and 15.9 µM, the GI50 (DLD-1 colon) was 23.9 µM and 6.6 µM and the TGI (DLD-1 colon) was > 100 µM and 40.7 µM.
For `CN(CCc1ccccn1)c1ccc2c(c1)C(=O)c1ccccc1-2`, the TGI (786-0 renal) was > 100 µM, the TGI (SN12C renal) was > 100 µM and the TGI (T-47D breast) was > 100 µM. The TGI (SNB-75 CNS) was > 100 µM and the TGI (OVCAR-4 ovarian) was > 100 µM.
For `CN(C)c1ccc(-c2ccc(-c3ccc(C(=N)N)cn3)o2)cc1`, the GI50 (T-47D breast) was 1.73 µM, the TGI (T-47D breast) was 3.67 µM and the GI50 (SNB-75 CNS) was 1.59 µM. It also gave a TGI (SNB-75 CNS) of 3 µM.
`COc1ccc(C2C3CCc4ccccc4C3=NN2S(=O)(=O)c2cccc(C(=O)O)c2OC)cc1` (stereo not drawn) was tested, and the TGI (786-0 renal) was > 100 µM, the TGI (SN12C renal) was > 100 µM and the TGI (T-47D breast) was > 100 µM. For the same molecule, the TGI (OVCAR-4 ovarian) was > 100 µM.
